Measured values from article PMC4508061, “Selectivity Profiling and Biological Activity of Novel β-Carbolines as Potent and Selective DYRK1 Kinase Inhibitors” (PLoS ONE, 2015).
pIC50: −log10 of the molar value. “Also recorded” adds a separate entry of the source.

Assays:
PBK = PBK (Homo sapiens, UniProt Q96KB5); experiment: ProQinase radiometric kinase panel; conditions: mean of 2 exp.
ACV-R2B = ACV-R2B (Homo sapiens, UniProt Q13705); experiment: ProQinase radiometric kinase panel; conditions: mean of 2 exp.
PASK = PASK (Homo sapiens, UniProt Q96RG2); experiment: ProQinase radiometric kinase panel; conditions: mean of 2 exp.
Sequence of PASK (Q96RG2 whole entry): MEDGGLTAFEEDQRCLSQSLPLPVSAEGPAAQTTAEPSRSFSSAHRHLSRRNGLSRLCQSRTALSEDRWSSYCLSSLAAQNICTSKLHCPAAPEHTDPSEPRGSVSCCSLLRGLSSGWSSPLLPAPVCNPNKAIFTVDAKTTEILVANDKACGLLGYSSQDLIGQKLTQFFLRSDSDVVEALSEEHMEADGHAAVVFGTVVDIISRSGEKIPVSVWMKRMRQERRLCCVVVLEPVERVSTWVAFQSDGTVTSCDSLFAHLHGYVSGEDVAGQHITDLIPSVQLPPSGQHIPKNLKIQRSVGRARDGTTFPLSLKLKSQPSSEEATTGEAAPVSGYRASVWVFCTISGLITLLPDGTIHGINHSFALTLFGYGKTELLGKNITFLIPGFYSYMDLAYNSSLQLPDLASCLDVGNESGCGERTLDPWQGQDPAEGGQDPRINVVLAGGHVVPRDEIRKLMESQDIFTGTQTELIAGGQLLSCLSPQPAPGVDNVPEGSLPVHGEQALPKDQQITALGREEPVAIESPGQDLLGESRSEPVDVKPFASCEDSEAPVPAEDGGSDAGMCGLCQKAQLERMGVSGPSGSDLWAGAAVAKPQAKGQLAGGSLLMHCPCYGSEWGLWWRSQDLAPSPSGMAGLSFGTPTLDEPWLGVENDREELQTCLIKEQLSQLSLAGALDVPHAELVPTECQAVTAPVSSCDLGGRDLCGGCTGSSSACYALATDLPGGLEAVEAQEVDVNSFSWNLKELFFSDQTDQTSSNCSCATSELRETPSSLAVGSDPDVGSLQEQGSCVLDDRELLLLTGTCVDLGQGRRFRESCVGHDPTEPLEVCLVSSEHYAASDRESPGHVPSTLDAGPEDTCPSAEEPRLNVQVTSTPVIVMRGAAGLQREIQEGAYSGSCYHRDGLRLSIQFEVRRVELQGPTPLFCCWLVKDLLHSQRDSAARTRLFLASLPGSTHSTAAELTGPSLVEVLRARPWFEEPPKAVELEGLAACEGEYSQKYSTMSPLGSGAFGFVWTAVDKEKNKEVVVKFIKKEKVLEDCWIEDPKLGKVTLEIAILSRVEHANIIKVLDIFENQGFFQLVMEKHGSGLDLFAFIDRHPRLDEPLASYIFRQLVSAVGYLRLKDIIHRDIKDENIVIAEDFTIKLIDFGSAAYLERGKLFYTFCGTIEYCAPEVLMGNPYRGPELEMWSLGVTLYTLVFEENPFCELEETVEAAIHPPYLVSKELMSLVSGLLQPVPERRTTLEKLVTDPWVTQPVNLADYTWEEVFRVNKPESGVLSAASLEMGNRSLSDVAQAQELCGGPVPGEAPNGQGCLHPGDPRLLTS

SRPK1 = SRPK1 (Homo sapiens, UniProt Q96SB4); experiment: ProQinase radiometric kinase panel; conditions: mean of 2 exp.
FGR = FGR (Homo sapiens, UniProt P09769); experiment: ProQinase radiometric kinase panel; conditions: mean of 2 exp.
DAPK1 = DAPK1 (Homo sapiens, UniProt P53355); experiment: ProQinase radiometric kinase panel; conditions: mean of 2 exp.
Sequence of DAPK1 (P53355 whole entry): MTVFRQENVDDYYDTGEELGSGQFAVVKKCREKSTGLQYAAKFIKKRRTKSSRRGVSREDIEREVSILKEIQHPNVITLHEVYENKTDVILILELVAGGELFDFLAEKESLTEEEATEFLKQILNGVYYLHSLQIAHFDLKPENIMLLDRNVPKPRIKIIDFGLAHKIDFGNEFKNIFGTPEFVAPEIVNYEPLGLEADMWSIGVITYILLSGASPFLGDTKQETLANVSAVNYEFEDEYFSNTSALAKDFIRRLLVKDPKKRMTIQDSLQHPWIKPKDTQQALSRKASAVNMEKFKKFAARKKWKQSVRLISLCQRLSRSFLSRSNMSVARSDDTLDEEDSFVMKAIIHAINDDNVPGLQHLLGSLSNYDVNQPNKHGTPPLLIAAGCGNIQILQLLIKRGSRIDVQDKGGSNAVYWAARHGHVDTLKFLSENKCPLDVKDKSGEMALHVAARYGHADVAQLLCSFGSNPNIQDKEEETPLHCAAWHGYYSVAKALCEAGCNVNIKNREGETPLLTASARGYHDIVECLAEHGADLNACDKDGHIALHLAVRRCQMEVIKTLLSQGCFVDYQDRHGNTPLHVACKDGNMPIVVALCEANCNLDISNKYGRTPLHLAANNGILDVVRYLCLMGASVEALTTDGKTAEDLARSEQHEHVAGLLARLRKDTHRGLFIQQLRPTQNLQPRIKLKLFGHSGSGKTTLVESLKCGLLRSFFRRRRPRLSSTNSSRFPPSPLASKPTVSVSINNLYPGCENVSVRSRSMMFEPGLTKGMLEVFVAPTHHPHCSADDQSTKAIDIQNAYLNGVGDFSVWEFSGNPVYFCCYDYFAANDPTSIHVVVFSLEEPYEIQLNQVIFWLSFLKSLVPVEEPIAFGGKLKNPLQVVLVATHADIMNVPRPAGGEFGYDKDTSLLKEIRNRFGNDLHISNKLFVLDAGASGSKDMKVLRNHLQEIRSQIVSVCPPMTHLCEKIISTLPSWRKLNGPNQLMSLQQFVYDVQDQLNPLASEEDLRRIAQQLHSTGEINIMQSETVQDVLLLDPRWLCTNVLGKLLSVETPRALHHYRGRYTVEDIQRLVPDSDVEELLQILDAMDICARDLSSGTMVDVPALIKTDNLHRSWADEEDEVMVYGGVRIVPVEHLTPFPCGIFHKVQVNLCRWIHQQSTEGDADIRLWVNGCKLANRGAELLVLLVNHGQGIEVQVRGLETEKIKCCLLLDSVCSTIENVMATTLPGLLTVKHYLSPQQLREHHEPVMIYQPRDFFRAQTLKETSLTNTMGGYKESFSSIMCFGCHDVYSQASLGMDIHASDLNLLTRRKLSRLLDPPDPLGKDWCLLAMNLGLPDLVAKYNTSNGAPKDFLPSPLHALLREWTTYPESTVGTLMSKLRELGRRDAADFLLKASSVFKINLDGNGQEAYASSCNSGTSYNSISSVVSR

CAMK4 = CAMK4 (Homo sapiens, UniProt Q16566); experiment: ProQinase radiometric kinase panel; conditions: mean of 2 exp.
BTK = BTK (Homo sapiens, UniProt Q06187); experiment: ProQinase radiometric kinase panel; conditions: mean of 2 exp.
JNK2 = JNK2 (Homo sapiens, UniProt P45984); experiment: ProQinase radiometric kinase panel; conditions: mean of 2 exp.
Sequence of JNK2 (P45984 whole entry): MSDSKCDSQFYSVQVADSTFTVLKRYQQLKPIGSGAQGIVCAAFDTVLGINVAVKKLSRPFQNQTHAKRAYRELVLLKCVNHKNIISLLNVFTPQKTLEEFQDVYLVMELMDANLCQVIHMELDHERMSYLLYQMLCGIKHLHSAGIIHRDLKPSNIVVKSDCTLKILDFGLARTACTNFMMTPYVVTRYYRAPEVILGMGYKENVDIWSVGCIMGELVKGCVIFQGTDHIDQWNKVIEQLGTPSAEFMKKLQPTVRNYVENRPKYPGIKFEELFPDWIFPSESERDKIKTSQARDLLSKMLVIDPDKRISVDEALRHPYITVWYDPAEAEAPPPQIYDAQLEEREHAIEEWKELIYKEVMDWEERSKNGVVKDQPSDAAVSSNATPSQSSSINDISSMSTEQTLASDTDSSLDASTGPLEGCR
Experimental: Gini coefficients were calculated and the Lorenz curve (Fig 3B) was plotted by applying the Microsoft Excel spreadsheet provided by Graczyk [44].
radiometric protein kinase assays.

TRK-C = TRK-C (Homo sapiens, UniProt Q16288); experiment: ProQinase radiometric kinase panel; conditions: mean of 2 exp.
MAO-A = target: T1, MAO-A (Homo sapiens, UniProt P21397); experiment: MAO-GLO assay; format: biochemical
T1 sequence (P21397 1-527): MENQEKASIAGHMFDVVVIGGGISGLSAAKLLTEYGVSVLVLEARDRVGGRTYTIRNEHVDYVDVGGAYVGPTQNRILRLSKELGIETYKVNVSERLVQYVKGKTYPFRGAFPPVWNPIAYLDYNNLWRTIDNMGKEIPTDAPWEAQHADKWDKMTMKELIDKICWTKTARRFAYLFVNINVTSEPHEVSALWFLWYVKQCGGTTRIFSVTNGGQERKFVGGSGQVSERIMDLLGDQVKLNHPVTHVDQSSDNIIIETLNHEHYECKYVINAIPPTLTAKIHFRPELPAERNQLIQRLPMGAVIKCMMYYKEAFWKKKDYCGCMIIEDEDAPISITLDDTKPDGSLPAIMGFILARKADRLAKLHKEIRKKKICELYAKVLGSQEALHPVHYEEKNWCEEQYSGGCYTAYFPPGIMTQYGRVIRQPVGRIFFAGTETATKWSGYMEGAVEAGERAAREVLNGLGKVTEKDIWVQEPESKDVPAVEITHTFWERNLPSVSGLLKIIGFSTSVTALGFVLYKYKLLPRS
Experimental: 2 were calculated. Kinase activity of DYRK1A was determined by radiometric assays using the peptide DYRKtide as a substrate. MAO-A activity was measured with the help of the MAO-GLO assay kit (Promega). IC50 values were calculated by curve fitting with the help of […]
the […] PRISM 5.0 program after automatic outlier elimination. The graphs present

TSSK1 = TSSK1 (Homo sapiens, UniProt Q9BXA7); experiment: ProQinase radiometric kinase panel; conditions: mean of 2 exp.
PHKG2 = PHKG2 (Homo sapiens, UniProt P15735); experiment: ProQinase radiometric kinase panel; conditions: mean of 2 exp.
HIPK2 = HIPK2 (Homo sapiens, UniProt Q9H2X6); experiment: Kinase-GLO luminescent kinase assay; format: biochemical; parameters: made in house; host or cells: E. coli; conditions: 10 μM compound; means of at least 3 measurements
Procedure, shortened: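 E. coli-expressed GST fusions (DYRK1A-ΔC, DYRK1B and HIPK2 catalytic domains, DYRK2) assayed in 25 mM Hepes pH 7.4, 5 mM MgCl2, 5 μM ATP with DYRKtide (20 μM for DYRKs, 100 μM for HIPK2). Kinase dosed to consume ~90% ATP; 30 min at room temperature, remaining ATP read by Kinase-GLO luminescence.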

CDK6/CycD1 = CDK6/CycD1 (Homo sapiens, UniProt Q00534); experiment: ProQinase radiometric kinase panel; conditions: mean of 2 exp.
Sequence of CDK6/CycD1 (Q00534 whole entry): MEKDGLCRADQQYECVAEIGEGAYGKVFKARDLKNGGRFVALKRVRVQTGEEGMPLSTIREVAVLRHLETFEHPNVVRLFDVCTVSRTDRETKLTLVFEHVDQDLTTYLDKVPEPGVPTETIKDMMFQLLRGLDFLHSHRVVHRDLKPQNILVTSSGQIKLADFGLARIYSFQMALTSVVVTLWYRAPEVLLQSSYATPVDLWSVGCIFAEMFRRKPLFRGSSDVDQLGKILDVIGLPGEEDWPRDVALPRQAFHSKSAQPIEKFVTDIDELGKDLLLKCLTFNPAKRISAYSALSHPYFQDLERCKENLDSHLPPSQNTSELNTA
Sequence of CDK6/CycD1 (P24385 whole entry partner): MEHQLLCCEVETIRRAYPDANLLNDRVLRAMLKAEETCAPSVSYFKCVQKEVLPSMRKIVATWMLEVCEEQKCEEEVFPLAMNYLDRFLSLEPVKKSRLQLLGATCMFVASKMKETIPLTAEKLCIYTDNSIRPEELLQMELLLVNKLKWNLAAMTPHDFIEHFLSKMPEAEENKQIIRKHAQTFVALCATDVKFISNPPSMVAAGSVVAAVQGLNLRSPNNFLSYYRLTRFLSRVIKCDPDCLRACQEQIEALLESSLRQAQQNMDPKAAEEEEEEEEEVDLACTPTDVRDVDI

RPS6KA1 = RPS6KA1 (Homo sapiens, UniProt Q15418); experiment: ProQinase radiometric kinase panel; conditions: mean of 2 exp.
Sequence of RPS6KA1 (Q15418 whole entry): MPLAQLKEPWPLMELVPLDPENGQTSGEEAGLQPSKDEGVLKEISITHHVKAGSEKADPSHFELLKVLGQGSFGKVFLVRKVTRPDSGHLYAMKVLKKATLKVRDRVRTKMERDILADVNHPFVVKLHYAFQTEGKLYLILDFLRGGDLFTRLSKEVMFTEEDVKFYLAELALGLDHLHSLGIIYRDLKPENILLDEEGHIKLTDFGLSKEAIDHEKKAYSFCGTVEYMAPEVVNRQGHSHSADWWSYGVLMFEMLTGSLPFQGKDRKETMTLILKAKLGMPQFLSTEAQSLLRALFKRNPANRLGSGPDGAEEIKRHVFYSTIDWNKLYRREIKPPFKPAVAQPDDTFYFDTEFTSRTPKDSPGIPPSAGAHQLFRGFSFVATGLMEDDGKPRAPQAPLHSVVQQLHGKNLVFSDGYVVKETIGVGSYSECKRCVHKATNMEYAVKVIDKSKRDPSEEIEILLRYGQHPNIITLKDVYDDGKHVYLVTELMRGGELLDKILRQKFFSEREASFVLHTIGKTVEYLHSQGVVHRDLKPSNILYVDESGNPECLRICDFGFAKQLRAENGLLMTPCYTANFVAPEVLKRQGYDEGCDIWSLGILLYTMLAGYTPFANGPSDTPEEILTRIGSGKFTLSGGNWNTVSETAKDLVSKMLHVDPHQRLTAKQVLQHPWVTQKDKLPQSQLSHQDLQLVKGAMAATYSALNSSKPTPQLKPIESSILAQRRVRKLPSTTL

CAMK2A = CAMK2A (Homo sapiens, UniProt Q9UQM7); experiment: ProQinase radiometric kinase panel; conditions: mean of 2 exp.
Sequence of CAMK2A (Q9UQM7 whole entry): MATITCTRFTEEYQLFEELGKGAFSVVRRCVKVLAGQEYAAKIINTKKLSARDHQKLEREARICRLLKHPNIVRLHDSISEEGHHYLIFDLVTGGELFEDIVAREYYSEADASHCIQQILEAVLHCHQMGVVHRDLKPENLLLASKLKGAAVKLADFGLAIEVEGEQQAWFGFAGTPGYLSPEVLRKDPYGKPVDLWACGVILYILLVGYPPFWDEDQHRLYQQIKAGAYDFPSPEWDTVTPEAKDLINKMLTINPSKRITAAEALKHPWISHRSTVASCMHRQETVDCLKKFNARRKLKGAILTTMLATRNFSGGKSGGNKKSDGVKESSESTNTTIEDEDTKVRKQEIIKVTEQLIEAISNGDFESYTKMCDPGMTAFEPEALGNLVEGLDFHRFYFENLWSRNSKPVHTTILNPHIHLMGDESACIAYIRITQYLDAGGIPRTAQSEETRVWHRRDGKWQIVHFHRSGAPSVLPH

IKK-beta = IKK-beta (Homo sapiens, UniProt O14920); experiment: ProQinase radiometric kinase panel; conditions: mean of 2 exp.
CDK4/CycD1 = CDK4/CycD1 (Homo sapiens, UniProt P11802); experiment: ProQinase radiometric kinase panel; conditions: mean of 2 exp.
TSK2 = TSK2 (Homo sapiens, UniProt Q96PF2); experiment: ProQinase radiometric kinase panel; conditions: mean of 2 exp.
PKC-delta = PKC-delta (Homo sapiens, UniProt Q05655); experiment: ProQinase radiometric kinase panel; conditions: mean of 2 exp.
ERK1 = ERK1 (Homo sapiens, UniProt P27361); experiment: ProQinase radiometric kinase panel; conditions: mean of 2 exp.
p38-gamma = p38-gamma (Homo sapiens, UniProt P53778); experiment: ProQinase radiometric kinase panel; conditions: mean of 2 exp.
EPHB4 = EPHB4 (Homo sapiens, UniProt P54760); experiment: ProQinase radiometric kinase panel; conditions: mean of 2 exp.

residual activity at 1 µM, Mean (PBK): 94 % of control | residual activity at 1 µM, Mean (ACV-R2B): 97 % of control | residual activity at 1 µM, Mean (PASK): 74 % of control | residual activity at 1 µM, Mean (SRPK1): 111 % of control | residual activity at 1 µM, Mean (FGR): 101 % of control | residual activity at 1 µM, Mean (DAPK1): 91 % of control | residual activity at 1 µM, Mean (CAMK4): 111 % of control | residual activity at 1 µM, Mean (BTK): 96 % of control | residual activity at 1 µM, Mean (JNK2): 100 % of control | residual activity at 1 µM, Mean (TRK-C): 87 % of control | pIC50 (MAO-A; n = 3–5 concentration response curves, read-out: Inhibition of MAO-A IC50): < 5.00 | residual activity at 1 µM, Mean (TSSK1): 85 % of control | residual activity at 1 µM, Mean (PHKG2): 94 % of control | Residual activity (% of control) HIPK2 (HIPK2): 85 % of control | residual activity at 1 µM, Mean (CDK6/CycD1): 95 % of control | residual activity at 1 µM, Mean (RPS6KA1): 63 % of control | residual activity at 1 µM, Mean (CAMK2A): 79 % of control | residual activity at 1 µM, Mean (IKK-beta): 91 % of control | residual activity at 1 µM, Mean (CDK4/CycD1): 100 % of control | residual activity at 1 µM, Mean (TSK2): 92 % of control | residual activity at 1 µM, Mean (PKC-delta): 105 % of control | residual activity at 1 µM, Mean (ERK1): 87 % of control | residual activity at 1 µM, Mean (p38-gamma): 86 % of control | residual activity at 1 µM, Mean (EPHB4): 95 % of control
Compound: COc1ccc2c3ccnc(Cl)c3n(CC#N)c2c1 [AnnH75]
effect on MAO-A (MAO-A): complete elimination of MAO-A inhibition; also recorded: no residual effect on MAO-A
